A word on the pIC50: it is −log10 of the IC50, conventionally taken in molar units.

pIC50: −log10 of the molar value.

Data on one substance can be found in PMC11101940, “A highly selective KIT inhibitor MOD000001 suppresses IgE-mediated mast cell activation” (The Journal of Allergy and Clinical Immunology: Global, 2024).

Holding throughout (assay type): biochemical
In test [1] the target is platelet derived growth factor-receptor B (PDGFRB) (Homo sapiens, UniProt P09619). Briefly: cell-free recombinant human kinase assay.
Sequence of platelet derived growth factor-receptor B (PDGFRB) (P09619 33-1106): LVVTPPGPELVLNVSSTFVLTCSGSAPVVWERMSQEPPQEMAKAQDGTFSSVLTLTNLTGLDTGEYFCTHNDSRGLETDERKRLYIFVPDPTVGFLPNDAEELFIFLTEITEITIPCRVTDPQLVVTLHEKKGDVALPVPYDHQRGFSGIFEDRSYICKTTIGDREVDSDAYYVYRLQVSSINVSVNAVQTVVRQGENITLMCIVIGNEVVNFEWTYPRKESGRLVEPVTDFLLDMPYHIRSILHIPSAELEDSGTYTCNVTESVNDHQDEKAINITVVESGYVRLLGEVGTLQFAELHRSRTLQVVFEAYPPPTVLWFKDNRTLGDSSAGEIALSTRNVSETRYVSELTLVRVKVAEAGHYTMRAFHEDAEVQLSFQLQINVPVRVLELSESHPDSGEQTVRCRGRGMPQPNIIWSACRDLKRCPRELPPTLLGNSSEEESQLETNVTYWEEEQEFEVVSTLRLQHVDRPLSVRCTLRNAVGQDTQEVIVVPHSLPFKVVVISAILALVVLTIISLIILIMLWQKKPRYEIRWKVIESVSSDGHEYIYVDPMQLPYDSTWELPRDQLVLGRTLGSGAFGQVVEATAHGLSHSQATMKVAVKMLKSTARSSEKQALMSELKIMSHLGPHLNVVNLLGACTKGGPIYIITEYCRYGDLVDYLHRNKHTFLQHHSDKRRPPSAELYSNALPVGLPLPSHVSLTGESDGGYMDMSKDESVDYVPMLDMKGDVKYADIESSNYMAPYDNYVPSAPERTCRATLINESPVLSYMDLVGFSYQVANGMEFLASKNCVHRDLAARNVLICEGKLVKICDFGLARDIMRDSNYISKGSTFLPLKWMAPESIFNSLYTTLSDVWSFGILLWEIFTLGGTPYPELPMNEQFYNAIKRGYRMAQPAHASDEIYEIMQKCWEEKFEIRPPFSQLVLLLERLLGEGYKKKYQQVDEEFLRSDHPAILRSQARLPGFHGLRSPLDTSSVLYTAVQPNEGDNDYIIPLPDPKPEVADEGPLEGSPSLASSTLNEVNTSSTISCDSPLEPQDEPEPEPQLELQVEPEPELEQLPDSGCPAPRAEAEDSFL
The target in test [2] is platelet derived growth factor-receptor A (PDGFRA) (Homo sapiens, UniProt P16234). The test is described as follows: cell-free recombinant human kinase assay.
Sequence of platelet derived growth factor-receptor A (PDGFRA) (P16234 24-1089): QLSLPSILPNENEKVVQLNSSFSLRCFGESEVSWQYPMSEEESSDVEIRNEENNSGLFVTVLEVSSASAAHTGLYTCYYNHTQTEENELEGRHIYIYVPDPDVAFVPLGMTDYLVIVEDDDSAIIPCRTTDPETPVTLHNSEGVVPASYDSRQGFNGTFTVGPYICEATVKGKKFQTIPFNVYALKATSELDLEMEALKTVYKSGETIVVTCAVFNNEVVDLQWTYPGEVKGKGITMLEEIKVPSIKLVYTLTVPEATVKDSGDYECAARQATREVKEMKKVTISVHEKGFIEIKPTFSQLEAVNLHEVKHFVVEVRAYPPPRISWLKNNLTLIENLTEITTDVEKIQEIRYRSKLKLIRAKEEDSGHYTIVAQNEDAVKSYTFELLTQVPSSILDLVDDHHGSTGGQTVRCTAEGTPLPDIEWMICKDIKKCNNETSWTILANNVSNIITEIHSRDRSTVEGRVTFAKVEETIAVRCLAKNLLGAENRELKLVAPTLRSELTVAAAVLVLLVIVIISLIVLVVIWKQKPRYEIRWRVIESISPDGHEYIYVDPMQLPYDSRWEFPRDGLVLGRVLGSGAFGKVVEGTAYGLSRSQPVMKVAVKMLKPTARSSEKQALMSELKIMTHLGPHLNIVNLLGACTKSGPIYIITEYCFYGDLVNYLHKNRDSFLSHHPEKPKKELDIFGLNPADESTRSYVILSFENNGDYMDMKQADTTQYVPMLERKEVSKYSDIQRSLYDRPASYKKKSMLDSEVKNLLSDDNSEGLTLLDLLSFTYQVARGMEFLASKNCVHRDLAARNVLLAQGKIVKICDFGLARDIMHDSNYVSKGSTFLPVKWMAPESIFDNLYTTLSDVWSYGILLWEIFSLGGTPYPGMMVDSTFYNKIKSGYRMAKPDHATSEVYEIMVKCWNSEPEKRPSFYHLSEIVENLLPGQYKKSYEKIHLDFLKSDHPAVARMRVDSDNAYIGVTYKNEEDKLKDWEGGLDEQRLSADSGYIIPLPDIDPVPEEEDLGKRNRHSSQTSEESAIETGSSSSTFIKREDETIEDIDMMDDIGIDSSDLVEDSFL
The target in test [3] is KIT (Homo sapiens, UniProt P10721). Briefly: cell-free recombinant human kinase assay (also KINOMEscan binding).
Sequence of KIT (P10721 26-976): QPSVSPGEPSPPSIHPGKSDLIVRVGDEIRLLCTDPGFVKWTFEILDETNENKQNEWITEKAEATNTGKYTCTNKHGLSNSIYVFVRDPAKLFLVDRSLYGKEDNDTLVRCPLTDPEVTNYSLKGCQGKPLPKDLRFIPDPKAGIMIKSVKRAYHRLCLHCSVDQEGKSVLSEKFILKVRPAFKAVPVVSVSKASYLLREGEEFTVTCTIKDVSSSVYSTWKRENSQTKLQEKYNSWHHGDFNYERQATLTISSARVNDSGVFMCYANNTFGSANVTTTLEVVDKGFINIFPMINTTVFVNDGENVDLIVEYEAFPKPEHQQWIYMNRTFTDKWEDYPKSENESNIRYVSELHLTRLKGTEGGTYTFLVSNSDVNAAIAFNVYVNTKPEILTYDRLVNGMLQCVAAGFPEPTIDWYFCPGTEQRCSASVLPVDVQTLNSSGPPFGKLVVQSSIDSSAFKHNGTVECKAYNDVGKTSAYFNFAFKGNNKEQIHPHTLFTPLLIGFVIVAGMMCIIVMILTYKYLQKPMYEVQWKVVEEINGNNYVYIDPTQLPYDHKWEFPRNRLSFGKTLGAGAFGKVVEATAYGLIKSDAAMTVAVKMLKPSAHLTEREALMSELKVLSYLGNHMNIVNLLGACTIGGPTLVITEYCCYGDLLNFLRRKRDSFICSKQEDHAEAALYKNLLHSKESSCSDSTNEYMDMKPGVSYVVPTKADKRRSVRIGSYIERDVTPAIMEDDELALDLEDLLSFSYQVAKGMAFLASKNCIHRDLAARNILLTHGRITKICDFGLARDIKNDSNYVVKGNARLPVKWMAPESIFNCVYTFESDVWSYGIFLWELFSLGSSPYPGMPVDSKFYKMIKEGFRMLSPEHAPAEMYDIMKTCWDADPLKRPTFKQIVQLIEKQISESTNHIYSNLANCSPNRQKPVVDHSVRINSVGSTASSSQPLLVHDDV

For the substance MOD000001, the pIC50 in test [1] is 6.66; in test [2], 5.85; in test [3], 8.70.
